Measurements as given in patent publication US11361527B2, “Automated robotic microscopy systems” (The J. David Gladstone Institutes, a testamentary trust …, priority 2012, dated 2022).

Tested on: primary neurons transfected with TDP43 M337V
Assay: Automated neurite quantification in primary neurons transfected with TDP43 M337V (ALS disease model), robotic microscope
Assay type: cell-based
Conditions: fluphenazine 0.1 μM vs vehicle, images every 24 hours, FIG. 24
Procedure: Primary neurons were transfected with GFP as a control or TDP43 M337V. The disease model neurons were treated with fluphenazine (0.1 μM) or vehicle to determine whether autophagy could rescue TDP43 M337V mediated loss of neurites. Images were collected every 24 hours with the robotic microscope and neurites were quantified using automated analysis as described herein.
Further, counting the number of neurites in neuronal cultures can be an early and sensitive measure of cell health. Neurite retraction often precedes neuron death when cells are coping with neurodegenerative disease causing proteins. One way to detect neurites with low computational complexity is to quantify the total area of neurites in an image. A line detector may be used to identify pixels in an image that have local structures that represent a line. The determination is based on the second order pixel data (Hessian matrix), which is a measure of local intensity curvature. In certain aspects, such an approach uses the following parameters:
The output of the line detector is a binary image with pixels that are part of lines having a value of 1 and all other pixels having a value of 0. The pixels of this binary image are then summed to quantify the total area of neurites. […] Images were collected every 24 hours with the robotic microscope and neurites were quantified using automated analysis as described above.

OCCN1CCN(CCCN2c3ccccc3Sc3ccc(C(F)(F)F)cc32)CC1 [fluphenazine]
neurite degeneration induced by TDP43 M337V (loss of neurites, automated neurite quantification): mitigates neurite degeneration
